{"source": "patent US20190079094A1", "about": "“SUBCELLULAR LOCALIZATION OF TARGET ANALYTES” (Beckman Coulter, Inc., priority 2016, published 2019)", "key": {"[1]": {"test": "Precipitation of detergent from solution at reduced pH", "type": "physicochemical", "details": "regardless of the concentration", "excerpt": "However, the performance of CHAPS decreases at lower pHs, and Sodium Deoxycholate immediately precipitates out of solution at pHs lower than ˜7.0 regardless of the concentration. Therefore, these may be useful for PBMCs or cell lines where a reduced pH is not necessary, but not for whole blood."}, "[2]": {"tested_on": "T cells and monocytes in whole blood", "test": "Digitonin and TX-100 titration on whole blood, flow cytometry (CytoCalcein Violet loss, HDAC1 staining)", "type": "cell-based", "details": "for concentration at which the nucleus is also permeabilized: peaked HDAC1 staining", "excerpt": "(§1) FIGS. 2A and 2B. Digitonin and TX-100 Titrations to Determine the Optimal Concentrations for Cytoplasmic vs. Nuclear Membrane Permeabilization. A) The cytoplasmic membrane in whole blood is fully permeabilized around 0.031% Digitonin, while the nucleus is also permeabilized around 0.5% Digitonin or 0.125% TX-100. B) The cytoplasmic membrane in PBMCs is fully permeabilized around 0.0016% Digitonin, while the nucleus is also permeabilized around 0.05% Digitonin or 0.025% TX-100. In this figure, the reduction in Calcein signal is indicative of permeabilization of the plasma membrane, while the peaked HDAC1 staining indicates complete nuclear permeabilization. The ledge that forms with HDAC1 prior to complete lysis is due to lysis of the endoplasmic reticulum, which also contains HDAC1.\n(§2) FIG. 2 is a comparison of the efficiency of cytoplasmic vs. nuclear permeabilization of T cells and monocytes by different concentrations of Digitonin or TX-100. FIG. 2A is a titration performed on whole blood, while FIG. 2B is a titration performed on PBMCs. In both cases, the samples were first preloaded for 1 hour with 1 μM CytoCalcein Violet (AAT Bioquest, Inc) in a CO2-regulated 37° C. incubator. After 1 hour, the samples were fixed for 10 min with 4% PFA, and then incubated for 30 min at RT with the different concentrations of detergents diluted in diH2O, at a 1:5 ratio with the sample mixture. The samples were then washed and stained with anti-HDAC1-FITC (Abcam, Plc), washed again, and finally read on a Gallios flow cytometer (BCI). In this figure, cytoplasmic lysis is indicated by the loss of CytoCalcein Violet signal as it is released from the cell once the plasma membrane is permeabilized, while nuclear lysis is indicated by the increased HDAC1 signal as the nuclear membrane is permeabilized. In the case of Digitonin lysis, there is a ledge of HDAC1 staining once the plasma membrane is lysed and prior to full nuclear lysis; this is indicative of lysis of the endoplasmic reticulum, which also contains a repository of HDAC1. In whole blood, there is a working range for Digitonin between roughly 0.015% and 0.125%, where the plasma membrane is lysed, but the nucleus is not. For PBMCs, this range is roughly between 0.001% and 0.0125%."}, "[3]": {"tested_on": "Lymphocytes and Monocytes in whole blood", "test": "Performance of detergents with whole blood (alternative approaches)", "type": "cell-based", "details": "for concentration at which surface markers are lost and cells disintegrate: Buffer 2 upper bound", "experimental": "An exemplary kit is composed of two separate buffers for whole-blood mononuclear cells (i.e., lymphocytes+monocytes): 1) The first buffer is to permeabilize the cytoplasm, including the ER, the endosomal system, and the outer mitochondrial membrane, while 2) the second buffer is to permeabilize everything permeabilized by the first buffer, plus the nucleus (and, in some embodiments, the inner mitochondrial matrix). Buffer 1 (Cytoplasm) may be composed of: 1-100 mM MES pH 4.5-6.5, 0-274 mM NaCl, 0-5.4 mM KCl, and 0.01-0.15% Digitonin. The optimal detergent concentration for Buffer 1 is between […] Digitonin, where the cytoplasm is lysed but the nucleus is not. Buffer 2 (Whole Cell) may be composed of: 1-100 mM MES pH 4.5-6.5, 0-274 mM NaCl, 0-5.4 mM KCl, and >0.01% Digitonin or >0.0125% Triton X-100. The optimal detergent concentration for Buffer 2 depends on the sample type, with the upper bound limited by the loss of surface markers and the disintegration of cells that occurs around 2% for both.\nThe methods of the invention rely on different detergents or detergent concentrations in order to gently lyse the cytoplasm plus as many cytoplasmic components as possible in one tube, and the whole cell including the nucleus in the other tube. For this reason, a variety of detergents will work to accomplish this task. Some are as follows, with reference to their performance with whole blood: […]"}, "[4]": {"tested_on": "T cells and monocytes in PBMCs", "test": "Digitonin and TX-100 titration on PBMCs, flow cytometry (CytoCalcein Violet loss, HDAC1 staining)", "type": "cell-based", "details": "for concentration at which the nucleus is also permeabilized: peaked HDAC1 staining", "excerpt": "as §1, §2"}, "MCF-7 cells": {"tested_on": "MCF-7 cells", "test": "Modified protocol with MCF-7 cells preloaded with CytoCalcein Violet", "type": "cell-based, human", "details": "for concentration permeabilizing only the plasma (cytoplasmic) membrane: loss of CytoCalcein Violet", "experimental": "FIG. 4. Modified Protocol to Assess the Permeabilization of the Plasma Membrane with MCF-7 Cells. The cells were preloaded with CytoCalcein Violet, and cytoplasmic membrane permeabilization is indicated by the loss of this signal. In this experiment, 0.025% Digitonin or TX-100 permeabilized only the cytoplasm, while 0.25% of either fully permeabilized the both cytoplasmic and nuclear membranes.\nIn this experiment, after the cells had been plated for 24 hours, they were preloaded for 1 hour with 1 μM CytoCalcein Violet and then processed as indicated in FIG. 3. When the samples were ready for cover-slipping, mounting medium without DAPI was used. Images were captured on a Zeiss Axioskop 2 Plus microscope together with a 63× oil-immersion lens. In this figure, MCF-7 cells that were not permeabilized can be seen to be loaded with CytoCalcein Violet, and this staining is lost once the plasma membrane is permeabilized. […] In this experiment, 0.025% of both Digitonin and TX-100 can be seen to permeabilize the plasma membrane, while 0.25% of both can be seen to permeabilize the whole cell. This modified protocol was used for subsequent testing of the performance of the different detergents with whole blood and PBMCs by flow cytometry, including for the results in FIG. 2."}, "[5]": {"tested_on": "T cells and monocytes in whole blood", "test": "Optimal lysis parameters for whole blood in MES-buffered solution (HSP60, Lamin A/C)", "type": "cell-based", "details": "5% fixative", "excerpt": "FIGS. 5A and 5B. Cytoplasmic vs. Nuclear Membrane Permeabilization in a Whole Blood Sample using the Optimal Buffer Compositions. A) The CD45 vs. SS and FS vs. SS profiles of the samples after lysis. B) The degree of mitochondrial vs. nuclear membrane permeabilization in T cells. C) The degree of mitochondrial vs. nuclear membrane permeabilization in Monocytes. All of the detergent concentrations used in this experiment fully permeabilized the plasma membrane, while HSP60 and Lamin A/C indicate the degree of mitochondrial inner membrane and nuclear membrane permeabilization, respectively.\nFIG. 5 indicates the optimal lysis parameters for whole blood, including modified buffer conditions in order to improve RBC lysis. […] In order to improve RBC lysis, the solution was ultimately buffered with MES at a pH between 4.5-6.5 (such as a pH of 5.5), which also allowed the salt concentration to be increased to physiological levels. This further improved the scatter profiles of the WBCs, decreased the time required for complete lysis to approximately 15 minutes, and improved the RBC lysis efficiency to the point that the buffers still work well if the fixation time is extended well beyond protocol (>20 min). At the same time, the fixative concentration was increased to 5% due to improved performance. In FIG. 5A, the scatter profiles for the optimal lysis parameters can be seen, where 0.0625% Digitonin is optimal for cytoplasmic membrane permeabilization, and either 0.5% Digitonin or 0.25% TX-100 are optimal for whole-cell membrane permeabilization. […] In both cases, the permeabilization profiles can be seen to be consistent with the defined optimal detergent concentrations."}, "[6]": {"tested_on": "CREB, RelA and ERK phosphorylation in monocytes", "test": "Stimulation of monocytes with LPS or GM-CSF, cytoplasmic vs. nuclear signaling", "type": "cell-based", "details": "1 μg/mL LPS or 100 ng/mL GM-CSF", "experimental": "FIG. 8. Differential Signaling in Monocytes Induced by 1 μg/mL LPS vs. 100 ng/mL GM-CSF. A) Both LPS and GM-CSF induced CREB phosphorylation at S133, accumulating maximally in the nucleus by 10 min. B) LPS stimulation induced RelA phosphorylation maximally by 10 min in both the cytoplasm and nucleus, though predominantly in the nucleus. C) Both LPS and GM-CSF stimulated ERK phosphorylation primarily in the cytoplasm, maximally by 5 min for GM-CSF and 10 min for LPS.\nThe protocol for processing whole blood samples is as follows (see FIG. 1 for a workflow): 1) The sample is first mixed 1:1 with fixative, vortexed, and then incubated for 10 minutes. An extra control tube is included for each buffer, which is stained with all antibodies except for the specific signaling or target antibodies being tested in order to subtract the background signal. The background control may also be labeled with isotype-control antibodies for more precise determination of non-specific binding, especially in cells that have characteristically high non-specific binding, such as neutrophils. For indirect antibody labeling, omitting the primary antibody, but still utilizing the secondary antibody, is a common method for determining the degree of non-specific background signal attributable to the secondary antibody, which is typically higher than the direct conjugates of target antibodies. […] 6) Once stained, the samples are again washed 2× with PBS or wash buffer, resuspended in PBS+0.5% PFA, and read on a flow cytometer.\nAfter data acquisition, the samples are gated, compensated, and analyzed as standard flow cytometry samples. […] For example, if staining for the subcellular distribution of FoxP3, where the Background MFIs for the Cytoplasm and Whole Cell are 1.5 and the raw FoxP3 signal is 3.5 and 31.5 for the Cytoplasm and Whole Cell, respectively, then the Cytoplasmic MFI would be calculated to be 2 (i.e., 3.5 (raw)−1.5 (background)=2) and the Nuclear MFI would be calculated to be 28 (i.e., 31.5 (raw)−1.5 (background)−2 (Cytoplasm)=28). […]"}}, "note": "“Also recorded” adds a separate entry of the source."}
{"molecule": "Sodium Deoxycholate", "values": [{"measurement": "pH below which the detergent immediately precipitates out of solution", "setting": "[1]", "value": "< 7.0"}]}
{"molecule": "C[C@@H]1CC[C@@]2(OC1)O[C@H]1[C@@H](O)[C@H]3[C@@H]4CC[C@H]5C[C@@H](O[C@@H]6O[C@H](CO)[C@H](O[C@@H]7O[C@H](CO)[C@@H](O)[C@H](O[C@@H]8OC[C@@H](O)[C@H](O)[C@H]8O)[C@H]7O[C@@H]7O[C@H](CO)[C@H](O)[C@H](O[C@@H]8O[C@H](CO)[C@@H](O)[C@H](O)[C@H]8O)[C@H]7O)[C@H](O)[C@H]6O)[C@H](O)C[C@]5(C)[C@H]4CC[C@]3(C)[C@H]1[C@@H]2C", "note": "[Digitonin]", "values": [{"measurement": "concentration for complete lysis of the cells", "setting": "[2]", "value": 0.25, "unit": "%"}, {"measurement": "concentration at which the nucleus is also permeabilized", "setting": "[2]", "value": "around 0.5%"}, {"measurement": "concentration at which the cytoplasmic membrane is fully permeabilized", "setting": "[2]; reduction in Calcein signal", "value": "around 0.031%"}, {"measurement": "concentration at which surface markers are lost and cells disintegrate", "setting": "[3]", "value": "around 2%"}, {"measurement": "concentration for complete lysis of the cells", "setting": "[4]", "value": 0.025, "unit": "%"}, {"measurement": "concentration at which the nucleus is also permeabilized", "setting": "[4]", "value": "around 0.05%"}, {"measurement": "concentration at which the cytoplasmic membrane is fully permeabilized", "setting": "[4]; reduction in Calcein signal", "value": "around 0.0016%"}, {"measurement": "concentration permeabilizing the whole cell (cytoplasmic and nuclear membranes)", "setting": "MCF-7 cells", "value": 0.25, "unit": "%"}, {"measurement": "concentration permeabilizing only the plasma (cytoplasmic) membrane", "setting": "MCF-7 cells", "value": 0.025, "unit": "%"}, {"measurement": "optimal concentration for cytoplasmic membrane permeabilization", "setting": "[5]", "value": 0.0625, "unit": "%"}, {"measurement": "optimal concentration for whole-cell membrane permeabilization", "setting": "[5]", "value": 0.5, "unit": "%"}]}
{"molecule": "GM-CSF: cytokine activator reagent", "values": [{"measurement": "time of peak RelA S536 phosphorylation", "setting": "[6]", "value": "did not stimulate RelA phosphorylation at S536"}, {"measurement": "time of peak ERK phosphorylation (S202/T204)", "setting": "[6]; primarily cytoplasm", "value": "≤ 5", "unit": "min"}]}
{"molecule": "Octylphenoxypoly(ethylene-oxy)ethanol [NP-40]", "values": [{"measurement": "performance compared with TX-100", "setting": "[3]; whole blood", "value": "performs equivalently to TX-100; also recorded: interchangeable with TX-100 for whole-cell permeabilization"}]}
{"molecule": "ethyoxylated octylphenol [TX-100]", "values": [{"measurement": "concentration for complete lysis of the cells", "setting": "[2]", "value": 0.125, "unit": "%"}, {"measurement": "working range where the plasma membrane is lysed but the nucleus is not", "setting": "[2]", "value": "does not provide this working range"}, {"measurement": "concentration at which the nucleus is also permeabilized", "setting": "[2]", "value": "~0.125", "unit": "%"}, {"measurement": "concentration at which surface markers are lost and cells disintegrate", "setting": "[3]", "value": "around 2%"}, {"measurement": "concentration for complete lysis of the cells", "setting": "[4]", "value": 0.025, "unit": "%"}, {"measurement": "concentration at which the nucleus is also permeabilized", "setting": "[4]", "value": "~0.025", "unit": "%"}, {"measurement": "concentration permeabilizing the whole cell (cytoplasmic and nuclear membranes)", "setting": "MCF-7 cells", "value": 0.25, "unit": "%"}, {"measurement": "concentration permeabilizing only the plasma (cytoplasmic) membrane", "setting": "MCF-7 cells", "value": 0.025, "unit": "%"}, {"measurement": "optimal concentration for whole-cell membrane permeabilization", "setting": "[5]", "value": 0.25, "unit": "%"}]}
